# Results from ChEMBL document CHEMBL4765377, “Design, synthesis, and evaluation of amphiphilic sofalcone derivatives as potent Gram-positive antibacterial agents” (Eur J Med Chem, 2020).
# Activity calls are given as the source filed them. No cut-off for these calls is given here.
# Experiments:
# Staphylococcus aureus [1] = experiment: Antibacterial activity against Staphylococcus aureus ATCC 29213 assessed as reduction in bacterial growth after 24 hrs by CLSI based broth micro dilution method; type: functional
# Staphylococcus aureus [2] = experiment: Antibacterial activity against methicillin-resistant Staphylococcus aureus N315 assessed as reduction in bacterial growth after 24 hrs by CLSI based broth micro dilution method; type: functional
# Staphylococcus aureus [3] = experiment: Antibacterial activity against methicillin-resistant Staphylococcus aureus NCTC10442 assessed as reduction in bacterial growth after 24 hrs by CLSI based broth micro dilution method; type: functional
# Escherichia coli [4] = experiment: Antibacterial activity against Escherichia coli ATCC 25922 assessed as reduction in bacterial growth after 24 hrs by CLSI based broth micro dilution method; type: functional
# [5] = Hemolytic activity in rabbit RBC after 60 mins; type: ADME, cell-based, Oryctolagus cuniculus, Erythrocyte; conditions: rabbit red blood cells (erythrocytes)
# Staphylococcus aureus [6] = experiment: Bactericidal activity against Staphylococcus aureus ATCC 29213 assessed as reduction in bacterial load at 4 time of MIC concentration preincubated for 60 mins followed by compound washout further subculturing and measured after 24 hrs by time-kill assay; type: functional; conditions: 1 h
# Staphylococcus aureus [7] = experiment: Bactericidal activity against Staphylococcus aureus ATCC 29213 assessed as reduction in bacterial load at 8 time of MIC concentration preincubated for 30 mins followed by compound washout further subculturing and measured after 24 hrs by time-kill assay; type: functional; conditions: 0.5 h
# Staphylococcus aureus [8] = experiment: Bactericidal activity against Staphylococcus aureus ATCC 29213 assessed as reduction in bacterial load at MIC concentration preincubated for 120 mins followed by compound washout further subculturing and measured after 24 hrs by time-kill assay; type: functional; conditions: 2 h
# Staphylococcus aureus [9] = experiment: Bactericidal activity against Staphylococcus aureus ATCC 29213 assessed as reduction in bacterial load at 2 time of MIC concentration preincubated for 120 mins followed by compound washout further subculturing and measured after 24 hrs by time-kill assay; type: functional; conditions: 2 h
# Staphylococcus aureus [10] = experiment: Antibacterial activity against Staphylococcus aureus ATCC 29213 assessed as reduction in bacterial growth after 24 hrs in presence of sodium ion by CLSI based broth micro dilution method; type: functional
# Staphylococcus aureus [11] = experiment: Antibacterial activity against Staphylococcus aureus ATCC 29213 assessed as reduction in bacterial growth after 24 hrs in presence of potassium ion by CLSI based broth micro dilution method; type: functional
# Staphylococcus aureus [12] = experiment: Antibacterial activity against Staphylococcus aureus ATCC 29213 assessed as reduction in bacterial growth after 24 hrs in presence of calcium ion by CLSI based broth micro dilution method; type: functional
# Staphylococcus aureus [13] = experiment: Antibacterial activity against Staphylococcus aureus ATCC 29213 assessed as reduction in bacterial growth after 24 hrs in presence of magnesium ion by CLSI based broth micro dilution method; type: functional
# Staphylococcus aureus [14] = experiment: Antibacterial activity against methicillin-resistant Staphylococcus aureus N315 assessed as reduction in bacterial growth after 24 hrs in presence of sodium ion by CLSI based broth micro dilution method; type: functional
# Staphylococcus aureus [15] = experiment: Antibacterial activity against methicillin-resistant Staphylococcus aureus N315 assessed as reduction in bacterial growth after 24 hrs in presence of potassium ion by CLSI based broth micro dilution method; type: functional
# Staphylococcus aureus [16] = experiment: Antibacterial activity against methicillin-resistant Staphylococcus aureus N315 assessed as reduction in bacterial growth after 24 hrs in presence of calcium ion by CLSI based broth micro dilution method; type: functional
# Staphylococcus aureus [17] = experiment: Antibacterial activity against methicillin-resistant Staphylococcus aureus N315 assessed as reduction in bacterial growth after 24 hrs in presence of magnesium ion by CLSI based broth micro dilution method; type: functional
# Staphylococcus aureus [18] = experiment: Antibacterial activity against methicillin-resistant Staphylococcus aureus NCTC10442 assessed as reduction in bacterial growth after 24 hrs in presence of sodium ion by CLSI based broth micro dilution method; type: functional
# Staphylococcus aureus [19] = experiment: Antibacterial activity against methicillin-resistant Staphylococcus aureus NCTC10442 assessed as reduction in bacterial growth after 24 hrs in presence of potassium ion by CLSI based broth micro dilution method; type: functional
# Staphylococcus aureus [20] = experiment: Antibacterial activity against methicillin-resistant Staphylococcus aureus NCTC10442 assessed as reduction in bacterial growth after 24 hrs in presence of calcium ion by CLSI based broth micro dilution method; type: functional
# Staphylococcus aureus [21] = experiment: Antibacterial activity against methicillin-resistant Staphylococcus aureus NCTC10442 assessed as reduction in bacterial growth after 24 hrs in presence of magnesium ion by CLSI based broth micro dilution method; type: functional
# Escherichia coli [22] = experiment: Antibacterial activity against Escherichia coli ATCC 25922 assessed as reduction in bacterial growth after 24 hrs in presence of sodium ion by CLSI based broth micro dilution method; type: functional
# Escherichia coli [23] = experiment: Antibacterial activity against Escherichia coli ATCC 25922 assessed as reduction in bacterial growth after 24 hrs in presence of potassium ion by CLSI based broth micro dilution method; type: functional
# Escherichia coli [24] = experiment: Antibacterial activity against Escherichia coli ATCC 25922 assessed as reduction in bacterial growth after 24 hrs in presence of calcium ion by CLSI based broth micro dilution method; type: functional
# Escherichia coli [25] = experiment: Antibacterial activity against Escherichia coli ATCC 25922 assessed as reduction in bacterial growth after 24 hrs in presence of magnesium ion by CLSI based broth micro dilution method; type: functional
# [26] = Cytotoxicity against human MDA-MB-231 cells assessed as viability at 3.125 ug/ml after 24 hrs by CCK8 assay relative to control; type: cell-based; conditions: at 3.125 µg/mL, read-out: Activity
# [27] = Cytotoxicity against human MDA-MB-231 cells assessed as viability at 6.25 ug/ml after 24 hrs by CCK8 assay relative to control; type: cell-based; conditions: at 6.25 µg/mL, read-out: Activity
# [28] = Cytotoxicity against human MDA-MB-231 cells assessed as viability at 12.5 ug/ml after 24 hrs by CCK8 assay relative to control; type: cell-based; conditions: at 12.5 µg/mL, read-out: Activity
# [29] = Cytotoxicity against human MDA-MB-231 cells assessed as viability at 25 ug/ml after 24 hrs by CCK8 assay relative to control; type: cell-based; conditions: at 25 µg/mL, read-out: Activity
# [30] = Cytotoxicity against mouse NCTC clone 929 cells assessed as viability at 3.125 ug/ml after 24 hrs by CCK8 assay relative to control; type: cell-based; conditions: at 3.125 µg/mL, read-out: Activity
# [31] = Cytotoxicity against mouse NCTC clone 929 cells assessed as viability at 6.25 ug/ml after 24 hrs by CCK8 assay relative to control; type: cell-based; conditions: at 6.25 µg/mL, read-out: Activity
# [32] = Cytotoxicity against mouse NCTC clone 929 cells assessed as viability at 12.5 ug/ml after 24 hrs by CCK8 assay relative to control; type: cell-based; conditions: at 12.5 µg/mL, read-out: Activity
# [33] = Cytotoxicity against mouse NCTC clone 929 cells assessed as viability at 25 ug/ml after 24 hrs by CCK8 assay relative to control; type: cell-based; conditions: at 25 µg/mL, read-out: Activity
# [34] = Cytotoxicity against mouse corneal fibroblast cells assessed as viability at 3.125 ug/ml after 24 hrs by CCK8 assay relative to control; type: cell-based; conditions: at 3.125 µg/mL, read-out: Activity
# [35] = Cytotoxicity against mouse corneal fibroblast cells assessed as viability at 6.25 ug/ml after 24 hrs by CCK8 assay relative to control; type: cell-based; conditions: at 6.25 µg/mL, read-out: Activity
# [36] = Cytotoxicity against mouse corneal fibroblast cells assessed as viability at 12.5 ug/ml after 24 hrs by CCK8 assay relative to control; type: cell-based; conditions: at 12.5 µg/mL, read-out: Activity
# [37] = Cytotoxicity against mouse corneal fibroblast cells assessed as viability at 25 ug/ml after 24 hrs by CCK8 assay relative to control; type: cell-based; conditions: at 25 µg/mL, read-out: Activity
# Staphylococcus aureus [38] = experiment: Antibacterial activity against Staphylococcus aureus ATCC 29213 assessed as reduction in bacterial growth at 0.5 time of MIC after 14 days passage by CLSI based broth micro dilution method; type: functional, organism-based; conditions: time 14.0 day
# Cell membrane [39] = experiment: Disruption of bacterial cell membrane in Staphylococcus aureus ATCC 29213 measured for 1 hr by SYTOX green staining based assay
# Cell membrane [40] = experiment: Disruption of bacterial cell membrane in methicillin-resistant Staphylococcus aureus NCTC10442 measured for 1 hr by SYTOX green staining based assay
# Cell membrane [41] = experiment: Disruption of bacterial cell membrane in Staphylococcus aureus ATCC 29213 at 8 times of MIC measured for 2 hr by propidium iodide and SYTO9 dye based LIVE/DEAD bacterial viability assay
# Staphylococcus aureus [42] = experiment: Antibacterial activity against Staphylococcus aureus ATCC 29213 infected in C57BL6 mouse assessed as reduction in bacterial load at 6.56 mmol/L, administered topically at 2 hrs interval for 3 days; type: functional; conditions: time 3 day
# Staphylococcus aureus [43] = experiment: Antibacterial activity against Staphylococcus aureus ATCC 29213 infected in C57BL6 mouse assessed as reduction in bacterial burden at 6.56 mmol/L, administered topically at 2 hrs interval for 3 days relative to control; type: functional; design: scale not given: the % may be the effect or the level left; conditions: time 3 day
smiles,measurement,setting,value
CC(C)=CCOc1ccc(/C=C/C(=O)c2ccc(OCC=C(C)C)cc2OCC(=O)N[C@@H](CCCNC(=N)N)C(=O)N[C@@H](CCCNC(=N)N)C(N)=O)cc1,MIC,Staphylococcus aureus [1],1.56 µg/mL
same,MIC,Staphylococcus aureus [2],1.56 µg/mL
same,MIC,Staphylococcus aureus [3],1.56 µg/mL
same,MIC,Escherichia coli [4],6.25 µg/mL
same,HC50 at 1 h,[5],276 µg/mL
same,log(activity),Staphylococcus aureus [6],3.25
same,log(activity),Staphylococcus aureus [7],3.75
same,log(activity),Staphylococcus aureus [8],2.6
same,log(activity),Staphylococcus aureus [9],2.76
same,MIC,Staphylococcus aureus [10],1.56 µg/mL
same,MIC,Staphylococcus aureus [11],1.56 µg/mL
same,MIC,Staphylococcus aureus [12],1.56 µg/mL
same,MIC,Staphylococcus aureus [13],1.56 µg/mL
same,MIC,Staphylococcus aureus [14],1.56 µg/mL
same,MIC,Staphylococcus aureus [15],1.56 µg/mL
same,MIC,Staphylococcus aureus [16],1.56 µg/mL
same,MIC,Staphylococcus aureus [17],1.56 µg/mL
same,MIC,Staphylococcus aureus [18],1.56 µg/mL
same,MIC,Staphylococcus aureus [19],1.56 µg/mL
same,MIC,Staphylococcus aureus [20],1.56 µg/mL
same,MIC,Staphylococcus aureus [21],1.56 µg/mL
same,MIC,Escherichia coli [22],12.5 µg/mL
same,MIC,Escherichia coli [23],6.25 µg/mL
same,MIC,Escherichia coli [24],6.25 µg/mL
same,MIC,Escherichia coli [25],6.25 µg/mL
same,"viability at 24 h, 3.125 ug/ml",[26],95.6%
same,"viability at 24 h, 6.25 ug/ml",[27],89.3%
same,"viability at 24 h, 12.5 ug/ml",[28],84.8%
same,"viability at 24 h, 25 ug/ml",[29],67.7%
same,"viability at 24 h, 3.125 ug/ml",[30],82%
same,"viability at 24 h, 6.25 ug/ml",[31],79%
same,"viability at 24 h, 12.5 ug/ml",[32],69.9%
same,"viability at 24 h, 25 ug/ml",[33],55.2%
same,"viability at 24 h, 3.125 ug/ml",[34],98%
same,"viability at 24 h, 6.25 ug/ml",[35],76.3%
same,"viability at 24 h, 12.5 ug/ml",[36],64.2%
same,"viability at 24 h, 25 ug/ml",[37],59.9%
same,Activity,Staphylococcus aureus [38],Active
same,Activity,Cell membrane [39],Dose-dependent effect
same,Activity,Cell membrane [40],Dose-dependent effect
same,Activity,Cell membrane [41],Active
same,log(activity),Staphylococcus aureus [42],4.34
same,Activity,Staphylococcus aureus [43],>99.99%
